From the supplement of paper PMC13380429
± gives the standard deviation of the averaged measurements.

What was measured:
Conditions in all cases: 72 h
[1] = system: Caco-2; test: cell viability relative to DMSO; higher = less toxic
[2] = system: Calu-3; test: as above
[3] = system: HepG2; test: as above
[4] = system: U2OS; test: as above
[5] = system: Vero E6; test: as above
[6] = system: Calu-3; test: relative viability EC50 (midpoint between 100% and the lowest measured viability); higher = less toxic
[7] = system: HepG2; test: as above
[8] = system: U2OS; test: as above
[9] = system: Vero E6; test: as above
[10] = system: Caco-2; test: drug sensitivity score (DSS) for viability; higher = more toxic; extreme values may be limits of the assay
[11] = system: Calu-3; test: as above
[12] = system: HepG2; test: as above
[13] = system: U2OS; test: as above
[14] = system: Vero E6; test: as above
[15] = system: Caco-2; test: relative viability EC50 (midpoint between 100% and the lowest measured viability); higher = less toxic

Structure (SMILES): CC1=C(/C=C/C(C)=C/C=C/C(C)=C/C(=O)O)C(C)(C)CCC1 [tretinoin]
- cell viability ([1]; 1 nM): 103 ± 8.2%
- cell viability ([1]; 10 nM): 102 ± 10%
- cell viability ([1]; 100 nM): 97.5 ± 1.4%
- cell viability ([1]; 1000 nM): 101 ± 1.9%
- cell viability ([1]; 10000 nM): 74.5 ± 18%
- cell viability ([2]; 1 nM): 106 ± 6.3%
- cell viability ([2]; 10 nM): 97.7 ± 1.7%
- cell viability ([2]; 100 nM): 106 ± 3.3%
- cell viability ([2]; 1000 nM): 87.5 ± 2.5%
- cell viability ([2]; 10000 nM): 85.4 ± 4.5%
- cell viability ([3]; 1 nM): 99.8 ± 2.9%
- cell viability ([3]; 10 nM): 102 ± 7%
- cell viability ([3]; 100 nM): 109.5 ± 0.64%
- cell viability ([3]; 1000 nM): 101 ± 3.5%
- cell viability ([3]; 10000 nM): 103 ± 6.5%
- cell viability ([4]; 1 nM): 98.8 ± 0.28%
- cell viability ([4]; 10 nM): 95.3 ± 4%
- cell viability ([4]; 100 nM): 94.3 ± 2.3%
- cell viability ([4]; 1000 nM): 95.6 ± 0.57%
- cell viability ([4]; 10000 nM): 90.7 ± 0.85%
- cell viability ([5]; 1 nM): 102 ± 5.2%
- cell viability ([5]; 10 nM): 101 ± 1.9%
- cell viability ([5]; 100 nM): 99.7 ± 3.3%
- cell viability ([5]; 1000 nM): 98.3 ± 2.1%
- cell viability ([5]; 10000 nM): 101 ± 1.9%
- relative viability EC50 [6]: > 10 µM
- relative viability EC50 [7]: > 10 µM
- relative viability EC50 [8]: > 10 µM
- relative viability EC50 [9]: > 10 µM
- drug sensitivity score [10]: 0.9 ± 1.1
- drug sensitivity score [11]: 1.2 ± 0.28
- drug sensitivity score [12]: 0
- drug sensitivity score [13]: 0
- drug sensitivity score [14]: 0

Structure (SMILES): Nc1ccn(C[C@@H](CO)OCP(=O)(O)O)c(=O)n1 [cidofovir]
- cell viability ([1]; 1 nM): 103%
- cell viability ([1]; 10 nM): 92.7%
- cell viability ([1]; 100 nM): 106%
- cell viability ([1]; 1000 nM): 96.8%
- cell viability ([1]; 10000 nM): 101%
- cell viability ([2]; 1 nM): 93.7%
- cell viability ([2]; 10 nM): 104%
- cell viability ([2]; 100 nM): 112%
- cell viability ([2]; 1000 nM): 101%
- cell viability ([2]; 10000 nM): 107%
- cell viability ([3]; 1 nM): 97%
- cell viability ([3]; 10 nM): 98.3%
- cell viability ([3]; 100 nM): 104%
- cell viability ([3]; 1000 nM): 111%
- cell viability ([3]; 10000 nM): 120%
- cell viability ([4]; 1 nM): 99.4%
- cell viability ([4]; 10 nM): 95.7%
- cell viability ([4]; 100 nM): 97.5%
- cell viability ([4]; 1000 nM): 95.3%
- cell viability ([4]; 10000 nM): 98.7%
- cell viability ([5]; 1 nM): 93.7%
- cell viability ([5]; 10 nM): 94.3%
- cell viability ([5]; 100 nM): 88.4%
- cell viability ([5]; 1000 nM): 87.4%
- cell viability ([5]; 10000 nM): 99.6%
- relative viability EC50 [15]: > 10 µM
- relative viability EC50 [6]: > 10 µM
- relative viability EC50 [7]: > 10 µM
- relative viability EC50 [8]: > 10 µM
- relative viability EC50 [9]: > 10 µM
- drug sensitivity score [10]: 0
- drug sensitivity score [11]: 0
- drug sensitivity score [12]: 0
- drug sensitivity score [13]: 0
- drug sensitivity score [14]: 0

Structure (SMILES): NCCc1cc[nH]n1 [betazole]
- cell viability ([1]; 1 nM): 89%
- cell viability ([1]; 10 nM): 91.4%
- cell viability ([1]; 100 nM): 84.3%
- cell viability ([1]; 1000 nM): 92.6%
- cell viability ([1]; 10000 nM): 107%
- cell viability ([2]; 1 nM): 97.2%
- cell viability ([2]; 10 nM): 102%
- cell viability ([2]; 100 nM): 97.2%
- cell viability ([2]; 1000 nM): 101%
- cell viability ([2]; 10000 nM): 109%
- cell viability ([3]; 1 nM): 100%
- cell viability ([3]; 10 nM): 106%
- cell viability ([3]; 100 nM): 92.9%
- cell viability ([3]; 1000 nM): 98%
- cell viability ([3]; 10000 nM): 125%
- cell viability ([4]; 1 nM): 102%
- cell viability ([4]; 10 nM): 99.5%
- cell viability ([4]; 100 nM): 105%
- cell viability ([4]; 1000 nM): 102%
- cell viability ([4]; 10000 nM): 108%
- cell viability ([5]; 1 nM): 94.4%
- cell viability ([5]; 10 nM): 104%
- cell viability ([5]; 100 nM): 92.8%
- cell viability ([5]; 1000 nM): 106%
- cell viability ([5]; 10000 nM): 106%
- relative viability EC50 [15]: > 10 µM
- relative viability EC50 [6]: > 10 µM
- relative viability EC50 [7]: > 10 µM
- relative viability EC50 [8]: > 10 µM
- relative viability EC50 [9]: > 10 µM
- drug sensitivity score [10]: 0
- drug sensitivity score [11]: 0
- drug sensitivity score [12]: 0
- drug sensitivity score [13]: 0
- drug sensitivity score [14]: 0

Structure (SMILES): O=C(Nc1cccc(C(F)(F)F)c1)Nc1ccc(Br)cc1-c1nnn[nH]1 [NS-3623]
- cell viability ([1]; 1 nM): 98%
- cell viability ([1]; 10 nM): 99.8%
- cell viability ([1]; 100 nM): 100%
- cell viability ([1]; 1000 nM): 97.8%
- cell viability ([1]; 10000 nM): 101%
- cell viability ([2]; 1 nM): 107%
- cell viability ([2]; 10 nM): 92.8%
- cell viability ([2]; 100 nM): 95.3%
- cell viability ([2]; 1000 nM): 102%
- cell viability ([2]; 10000 nM): 100%
- cell viability ([3]; 1 nM): 102%
- cell viability ([3]; 10 nM): 102%
- cell viability ([3]; 100 nM): 92.5%
- cell viability ([3]; 1000 nM): 98.7%
- cell viability ([3]; 10000 nM): 112%
- cell viability ([4]; 1 nM): 99.6%
- cell viability ([4]; 10 nM): 97.8%
- cell viability ([4]; 100 nM): 97.6%
- cell viability ([4]; 1000 nM): 99.2%
- cell viability ([4]; 10000 nM): 96.2%
- cell viability ([5]; 1 nM): 93.3%
- cell viability ([5]; 10 nM): 101%
- cell viability ([5]; 100 nM): 92.4%
- cell viability ([5]; 1000 nM): 94.6%
- cell viability ([5]; 10000 nM): 110%
- relative viability EC50 [15]: > 10 µM
- relative viability EC50 [6]: > 10 µM
- relative viability EC50 [7]: > 10 µM
- relative viability EC50 [8]: > 10 µM
- relative viability EC50 [9]: > 10 µM
- drug sensitivity score [10]: 0
- drug sensitivity score [11]: 0
- drug sensitivity score [12]: 0
- drug sensitivity score [13]: 0
- drug sensitivity score [14]: 0
